Experimental data taken from patent US9102678B2, “Compounds and methods for inhibiting mitotic progression” (Millennium Pharmaceuticals, Inc., priority 2004, dated 2015).
pIC50: −log10 of the molar value.

biological target: T1, recombinant murine Aurora A enzyme (Mus musculus, UniProt P97477); test: Aurora A DELFIA Kinase Assay; type: biochemical; settings: mouse Aurora A, 250 μM ATP; threshold less than or equal to 100 nM; read-out: IC50
T1 construct: hexahistidine (His6) (N); made in house; host or cells: insect cells, baculovirus (Bac-to-Bac, Invitrogen)
T1 sequence (P97477 whole entry): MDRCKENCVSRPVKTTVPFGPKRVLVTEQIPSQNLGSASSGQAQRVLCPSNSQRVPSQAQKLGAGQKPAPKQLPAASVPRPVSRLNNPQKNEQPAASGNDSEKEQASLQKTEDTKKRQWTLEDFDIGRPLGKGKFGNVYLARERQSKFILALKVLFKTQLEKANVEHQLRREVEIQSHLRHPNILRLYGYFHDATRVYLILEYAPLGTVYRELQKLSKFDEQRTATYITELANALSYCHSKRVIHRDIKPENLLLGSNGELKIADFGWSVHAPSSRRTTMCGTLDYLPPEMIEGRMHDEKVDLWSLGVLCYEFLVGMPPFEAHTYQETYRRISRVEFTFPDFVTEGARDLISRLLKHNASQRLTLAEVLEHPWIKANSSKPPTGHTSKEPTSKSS

SMILES | pIC50
CNC1CN(C(=O)c2ccc(Nc3ncc4c(n3)-c3ccc(Cl)cc3C(c3ccccc3C(F)(F)F)=NC4)cc2)C1 [Compound I-297, 9-chloro-N-(4-{[3-(methylamino)azetidin-1-yl]carbonyl}phenyl)-7-[2-(trifluoromethyl)phenyl]-5H-pyrimido[5,4-d][2]benzazepin-2-amine] | ≥ 7.00
NC1CCN(C(=O)c2ccc(Nc3ncc4c(n3)-c3ccc(Cl)cc3C(c3ccccn3)=NC4)cc2)CC1 [Compound I-298, N-{4-[(4-aminopiperidin-1-yl)carbonyl]phenyl}-9-chloro-7-pyridin-2-yl-5H-pyrimido[5,4-d][2]benzazepin-2-amine] | ≥ 7.00
NC1CCN(C(=O)c2ccc(Nc3ncc4c(n3)-c3ccc(Cl)cc3C(c3ccccn3)=NC4)cc2)C1 (stereo not shown) [Compound I-299, N-{4-[(3-aminopyrrolidin-1-yl)carbonyl]phenyl}-9-chloro-7-pyridin-2-yl-5H-pyrimido[5,4-d][2]benzazepin-2-amine] | ≥ 7.00
CCOC(=O)C(N)CCNC(=O)c1ccc(Nc2ncc3c(n2)-c2ccc(Cl)cc2C(c2c(F)cccc2F)=NC3)cc1 (stereo not shown) [Compound I-300, ethyl 2-amino-4-[(4-{[9-chloro-7-(2,6-difluorophenyl)-5H-pyrimido[5,4-d][2]benzazepin-2-yl]amino}benzoyl)amino]butanoate] | ≥ 7.00
O=C(O)c1ccc(Nc2ncc3c(n2)-c2ccc(Cl)cc2C(c2ncccc2F)=NC3)cc1 [Compound I-301, 4-{[9-chloro-7-(3-fluoropyridin-2-yl)-5H-pyrimido[5,4-d][2]benzazepin-2-yl]amino}benzoic acid] | ≥ 7.00
NC1CCN(C(=O)c2ccc(Nc3ncc4c(n3)-c3ccc(Cl)cc3C(c3ncccc3F)=NC4)cc2)CC1 [Compound I-304, N-{4[(4-aminopiperidin-1-yl)carbonyl]phenyl}-9-chloro-7-(3-fluoropyridin-2-yl)-5H-pyrimido[5,4-d][2]benzazepin-2-amine] | ≥ 7.00
NC1CCN(C(=O)c2ccc(Nc3ncc4c(n3)-c3ccc(Cl)cc3C(c3ncccc3F)=NC4)cc2)C1 (stereo not shown) [Compound I-305] | ≥ 7.00
O=C(O)C1CN=C(c2ccc(Nc3ncc4c(n3)-c3ccc(Cl)cc3C(c3c(F)cccc3F)=NC4)cc2)N1 (stereo not shown) [Compound I-306, 2-(4-{[9-chloro-7-(2,6-difluorophenyl)-5H-pyrimido[5,4-d][2]benzazepin-2-yl]amino}phenyl)-4,5-dihydro-1H-imidazole-5-carboxylic acid] | ≥ 7.00
CN(C)CC(=O)Nc1ccc(Nc2ncc3c(n2)-c2ccc(Cl)cc2C(c2c(F)cccc2F)=NC3)cc1 [Compound I-307, N-(4-{[9-chloro-7-(2,6-difluorophenyl)-5H-pyrimido[5,4-d][2]benzazepin-2-yl]amino}phenyl)-2-(dimethylamino)acetamide] | ≥ 7.00
CC(C)(N)C(=O)Nc1ccc(Nc2ncc3c(n2)-c2ccc(Cl)cc2C(c2c(F)cccc2F)=NC3)cc1 [Compound I-308, 2-amino-N-(4-{[9-chloro-7-(2,6-difluorophenyl)-5H-pyrimido[5,4-d][2]benzazepin-2-yl]amino}phenyl)-2-methylpropanamide] | ≥ 7.00
CCOC(=O)[C@@H](CCN)NC(=O)c1ccc(Nc2ncc3c(n2)-c2ccc(Cl)cc2C(c2c(F)cccc2F)=NC3)cc1 [Compound I-309, ethyl (2R)-4-amino-2-[(4-{[9-chloro-7-(2,6-difluorophenyl)-5H-pyrimido[5,4-d][2]benzazepin-2-yl]amino}benzoyl)amino]butanoate] | ≥ 7.00
CNC(=O)C1CN(C(=O)c2ccc(Nc3ncc4c(n3)-c3ccc(Cl)cc3C(c3c(F)cccc3F)=NC4)cc2)CCN1 (stereo not shown) [Compound I-310, 4-(4-{[9-chloro-7-(2,6-difluorophenyl)-5H-pyrimido[5,4-d][2]benzazepin-2-yl]amino}benzoyl)-N-methylpiperazine-2-carboxamide] | ≥ 7.00
CN(C)C1CCN(C(=O)c2ccc(Nc3ncc4c(n3)-c3ccc(Cl)cc3C(c3c(F)cccc3F)=NC4)cc2Cl)CC1 [Compound I-313, 9-chloro-N-(3-chloro-4-{[4-(dimethylamino)piperidin-1-yl]carbonyl}phenyl)-7-(2,6-difluorophenyl)-5H-pyrimido[5,4-d][2]benzazepin-2-amine] | ≥ 7.00
CCOC(=O)C1CN=C(c2ccc(Nc3ncc4c(n3)-c3ccc(Cl)cc3C(c3c(F)cccc3F)=NC4)cc2)N1 (stereo not shown) [Compound I-314, ethyl 2-(4-{[9-chloro-7-(2,6-difluorophenyl)-5H-pyrimido[5,4-d][2]benzazepin-2-yl]amino}phenyl)-4,5-dihydro-1H-imidazole-5-carboxylate] | ≥ 7.00
CNC1CCN(C(=O)c2ccc(Nc3ncc4c(n3)-c3ccc(Cl)cc3C(c3ccccn3)=NC4)cc2)C1 (stereo not shown) [Compound I-315, 9-chloro-N-(4-{[3-(methylamino)pyrrolidin-1-yl]carbonyl}phenyl)-7-pyridin-2-yl-5H-pyrimido[5,4-d][2]benzazepin-2-amine] | ≥ 7.00
CNC1CCN(C(=O)c2ccc(Nc3ncc4c(n3)-c3ccc(Cl)cc3C(c3ccccn3)=NC4)cc2)CC1 [Compound I-316, 9-chloro-N-(4-{[4-(methylamino)piperidin-1-yl]carbonyl}phenyl)-7-pyridin-2-yl-5H-pyrimido[5,4-d][2]benzazepin-2-amine] | ≥ 7.00
NC(=O)C1CN(C(=O)c2ccc(Nc3ncc4c(n3)-c3ccc(Cl)cc3C(c3c(F)cccc3F)=NC4)cc2)CCN1 (stereo not shown) [Compound I-317, 4-(4-{[9-chloro-7-(2,6-difluorophenyl)-5H-pyrimido[5,4-d][2]benzazepin-2-yl]amino}benzoyl)piperazine-2-carboxamide] | ≥ 7.00
NC1CCN(C(=O)c2ccc(Nc3ncc4c(n3)-c3ccc(Cl)cc3C(c3c(F)cccc3F)=NC4)cc2Cl)C1 (stereo not shown) [Compound I-318] | ≥ 7.00
O=C(Nc1ccc(Nc2ncc3c(n2)-c2ccc(Cl)cc2C(c2c(F)cccc2F)=NC3)cc1)C1CCNCC1 [Compound I-319, N-(4-{[9-chloro-7-(2,6-difluorophenyl)-5H-pyrimido[5,4-d][2]benzazepin-2-yl]amino}phenyl)piperidine-4-carboxamide] | ≥ 7.00
CC1CN(C(=O)c2ccc(Nc3ncc4c(n3)-c3ccc(Cl)cc3C(c3ccc(F)cc3F)=NC4)cc2)CC(C)N1 (stereo not shown) [Compound I-321, 9-chloro-7-(2,4-difluorophenyl)-N-{4-[(3,5-dimethylpiperazin-1-yl)carbonyl]phenyl}-5H-pyrimido[5,4-d][2]benzazepin-2-amine] | ≥ 7.00

The remaining lines, values ahead:

pIC50 | SMILES
≥ 7.00 | COc1cccc(F)c1C1=NCc2cnc(Nc3ccc(C(=O)N4CC(N)C4)cc3)nc2-c2ccc(Cl)cc21 [Compound I-286]
≥ 7.00 | NC1CCN(C(=O)c2ccc(Nc3ncc4c(n3)-c3ccc(Cl)cc3C(c3ccccc3C(F)(F)F)=NC4)cc2)CC1 [Compound I-287, N-{4[(4-aminopiperidin-1-yl)carbonyl]phenyl}-9-chloro-7-[2-(trifluoromethyl)phenyl]-5H-pyrimido[5,4-d][2]benzazepin-2-amine]
≥ 7.00 | CNC1CCN(C(=O)c2ccc(Nc3ncc4c(n3)-c3ccc(Cl)cc3C(c3ccccc3C(F)(F)F)=NC4)cc2)CC1 [Compound I-288, 9-chloro-N-(4-{[4-(methylamino)piperidin-1-yl]carbonyl}phenyl)-7-[2-(trifluoromethyl)phenyl]-5H-pyrimido[5,4-d][2]benzazepin-2-amine]
≥ 7.00 | NC1CCN(C(=O)c2ccc(Nc3ncc4c(n3)-c3ccc(Cl)cc3C(c3ccccc3C(F)(F)F)=NC4)cc2)C1 (stereo not shown) [Compound I-289, N-{4-[(3-aminopyrrolidin-1-yl)carbonyl]phenyl}-9-chloro-7-[2-(trifluoromethyl)phenyl]-5H-pyrimido[5,4-d][2]benzazepin-2-amine]
≥ 7.00 | CNC1CCN(C(=O)c2ccc(Nc3ncc4c(n3)-c3ccc(Cl)cc3C(c3ccccc3C(F)(F)F)=NC4)cc2)C1 (stereo not shown) [Compound I-290, 9-chloro-N-(4-{[3-(methylamino)pyrrolidin-1-yl]carbonyl}phenyl)-7-[2-(trifluoromethyl)phenyl]-5H-pyrimido[5,4-d][2]benzazepin-2-amine]
≥ 7.00 | CNC1CN(C(=O)c2cc(Nc3ncc4c(n3)-c3ccc(Cl)cc3C(c3c(F)cccc3F)=NC4)ccc2Cl)C1 [Compound I-291, 9-chloro-N-(4-chloro-3-{[3-(methylamino)azetidin-1-yl]carbonyl}phenyl)-7-(2,6-difluorophenyl)-5H-pyrimido[5,4-d][2]benzazepin-2-amine]
≥ 7.00 | NC1CCN(C(=O)c2cc(Nc3ncc4c(n3)-c3ccc(Cl)cc3C(c3c(F)cccc3F)=NC4)ccc2Cl)CC1 [Compound I-292, N-{3-[(4-aminopiperidin-1-yl)carbonyl]-4-chlorophenyl}-9-chloro-7-(2,6-difluorophenyl)-5H-pyrimido[5,4-d][2]benzazepin-2-amine]
≥ 7.00 | CN(C)C1CCCN(C(=O)c2ccc(Nc3ncc4c(n3)-c3ccc(Cl)cc3C(c3c(F)cccc3F)=NC4)cc2)C1 (stereo not shown) [Compound I-293, 9-chloro-7-(2,6-difluorophenyl)-N-(4-{[3-(dimethylamino)piperidin-1-yl]carbonyl}phenyl)-5H-pyrimido[5,4-d][2]benzazepin-2-amine]
≥ 7.00 | COC(=O)C1(N)CCN(C(=O)c2ccc(Nc3ncc4c(n3)-c3ccc(Cl)cc3C(c3c(F)cccc3F)=NC4)cc2)CC1 [Compound I-294, methyl 4-amino-1-(4-{[9-chloro-7-(2,6-difluorophenyl)-5H-pyrimido[5,4-d][2]benzazepin-2-yl]amino}benzoyl)piperidine-4-carboxylate]
≥ 7.00 | NC1(C(=O)O)CCN(C(=O)c2ccc(Nc3ncc4c(n3)-c3ccc(Cl)cc3C(c3c(F)cccc3F)=NC4)cc2)CC1 [Compound I-295, 4-amino-1-(4-{[9-chloro-7-(2,6-difluorophenyl)-5H-pyrimido[5,4-d][2]benzazepin-2-yl]amino}benzoyl)piperidine-4-carboxylic acid]
≥ 7.00 | NC1CN(C(=O)c2ccc(Nc3ncc4c(n3)-c3ccc(Cl)cc3C(c3ccccc3C(F)(F)F)=NC4)cc2)C1 [Compound I-296, N-{4-[(3-aminoazetidin-1-yl)carbonyl]phenyl}-9-chloro-7-[2-(trifluoromethyl)phenyl]-5H-pyrimido[5,4-d][2]benzazepin-2-amine]
